Patent US4361577A, “ω-Nor-cycloalkyl-13,14-dehydro-prostaglandins and process for their preparation” (Carlo Erba - S.p.A., priority 1974, dated 1982)

Tests used:
rat uterus [1] = assay: rat uterus test (spasmogenic activity); conditions: for ratio Uterus/Ileum / ratio Uterus/Stomach Fundus: ratio of activities relative to PGF2α; for ratio Uterus/Ileum: rat uterus / guinea pig ileum; for ratio Uterus/Stomach Fundus: rat uterus / rat stomach fundus; for spasmogenic activity, Rat Uterus: relative to PGF2α = 1 (conventional value), in vitro, 29° C., oestrogenized rat uteri
From the text: (§1) The same compound (13,14-dehydro-17-cyclohexyl-20,19,18-trinor-PGF2α) was compared with PGF2α and with the olefinic analogue 5c,13t-9α,11α,15S-trihydroxy-20,19,18-trinor-17-cyclohexyl-prosta-5,13-dienoic acid (17-cyclohexyl-20,19,18-trinor-PGF2α) in the following in vitro tests: guinea pig ileum test, rat uterus test, rat stomach fundus. The results are reported in the following Table, wherein to the activity of PGF2 the conventional value of 1 was given in all the tests. The three tests relate to the determination of the spasmogenic activity.
The rat uterus test consisted of a 10 ml thermostatic bath held at 29° C., in which oestrogenized rat uteri under 0.5 g traction were carboxygenated in a Dejalon saline solution. The preparation was left to stabilize for 30 minutes before the compounds were tested. Response was measured using a isotonic frontal lever, long enough to amplify the response 4.5 times.

guinea pig ileum = guinea pig ileum test (spasmogenic activity); conditions: relative to PGF2α = 1 (conventional value); in vitro, 35° C., Tyrode solution
From the text: as §1
The guinea pig ileum test consisted of a 10 ml thermostatic bath held at 35° C., containing the ileum of a male guinea pig, under 0.5 g traction, carboxygenated in a Tyrode solution; this was left for 30 minutes to stabilize before the compounds were tested. The response was recorded using a isotonic frontal lever, long enough to amplify the response 4.5 times.

rat stomach fundus = rat stomach fundus test (spasmogenic activity); conditions: relative to PGF2α = 1 (conventional value); in vitro, male Sprague-Dawley rats
From the text: as §1
The rat stomach fundus test was performed in the following manner: male albino rats of the Sprague-Dawley strain weighing 200-250 g were utilized. The stomach fundus strip was prepared according to Vane (J. R. Vane, Brit. J. Pharmacol. 12, 344, (1957)). The strip was suspended in a 10 ml organ bath containing Tyrode solution gassed with a mixture of O2 and CO2 (95:5%). The contractions of the strip were recorded using a isotonic frontal lever as in the preceding tests.

[2] = biological target: T1, 15-hydroxy-prostaglandin-dehydrogenase (Homo sapiens, UniProt P15428); assay: inhibition of 15-hydroxy-prostaglandin-dehydrogenase drawn from human placenta, in vitro; format: biochemical
T1 construct: 15-hydroxy-prostaglandin-dehydrogenase drawn from human placenta; from tissue; host or cells: human placenta
T1 sequence (P15428 1-266): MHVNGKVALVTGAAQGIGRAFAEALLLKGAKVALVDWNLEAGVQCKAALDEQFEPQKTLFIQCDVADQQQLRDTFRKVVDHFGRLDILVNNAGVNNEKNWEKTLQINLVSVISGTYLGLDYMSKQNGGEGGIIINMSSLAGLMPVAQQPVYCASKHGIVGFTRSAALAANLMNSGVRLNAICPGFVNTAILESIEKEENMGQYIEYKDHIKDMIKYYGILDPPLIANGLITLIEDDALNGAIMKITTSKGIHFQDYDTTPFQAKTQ
From the text: The compounds of formula (I) furthermore inhibit the use of natural prostaglandins as substrate by the enzyme.

pregnant rat = assay: luteolytic activity in the pregnant rat at the 9th-10th day of pregnancy; format: in vivo; conditions: relative to PGF2α = 1 (conventional value)
From the text: The action selectivity of the 13,14-dehydro compounds on the miometrium and on the reproductive apparatus is also proven by the remarkable increase of the luteolytic activity in the pregnant rat at the 9th-10th day of pregnancy. In fact, if the conventional value of 1 is given to the luteolytic activity of PGF2α, the value of 30 is to be given to the luteolytic acitivity of 17-cyclohexyl-20,19,18-trinor-PGF2α, and the value of 200 to the luteolytic activity of 13,14-dehydro-17-cyclohexyl-20,19,18-trinor-PGF2α.

rat uterus [3] = assay: antagonism of PGF2α on the rat uterus; conditions: tested against PGF2α

SMILES	ratio Uterus/Ileum (rat uterus [1])	ratio Uterus/Stomach Fundus (rat uterus [1])	spasmogenic activity, Rat Uterus (rat uterus [1])	spasmogenic activity, Guinea Pig Ileum (guinea pig ileum)	spasmogenic activity, Rat Stomach Fundus (rat stomach fundus)	Ki ([2]; inhibition with respect to PGE2)	Ki ([2]; inhibition with respect to PGF2α)	kind of inhibition ([2]; with respect to PGE2)	kind of inhibition ([2]; with respect to PGF2α)	luteolytic activity (pregnant rat)	antagonism of PGF2α on the rat uterus (rat uterus [3])
O=C(O)CCCC=CCC1C(O)CC(O)C1C#CC(O)CCC1CCCCC1 (stereo not drawn) [5c-9α,11α,15S-trihydroxy-20,19,18-trinor-17-cyclohexyl-prost-5-en-13-ynoic acid]	91	8	15.7	0.17	1.96	468 µM	152 µM	noncompetitive	partially competitive	200	able to antagonize PGF2α specifically and selectively
O=C(O)CCCC=CCC1C(O)CC(O)C1C=CC(O)CCC1CCCCC1 (stereo not drawn) [17-cyclohexyl-20,19,18-trinor-PGF2α, 5c,13t-9α,11α,15S-trihydroxy-20,19,18-trinor-17-cyclohexyl-prosta-5,13-dienoic acid]	5.4	1.7	3.23	0.60	1.86					30	
CCCCC[C@H](O)/C=C/[C@@H]1[C@@H](C/C=C\CCCC(=O)O)[C@@H](O)C[C@H]1O [PGF2α]	1	1								1	
